In patent US20250093330A1, “METHOD AND DEVICE FOR DRUG SCREENING” (SHANGHAI LIDE BIOTECH CO., LTD., priority 2021, published 2025):
“Also recorded” adds a separate entry of the source.

Columns and labels:
Assay type in all cases: in vivo, human (patient-derived), mouse host
[1] = test system: primary duodenal cancer cells; assay: method of the present invention, drug screening on primary duodenal cancer cells from a patient; conditions: primary tumor tissue of duodenal ampullary tumor patient, FIG. 9
Excerpt: 4 to 5-week old female Nu/Nu mice was ordered from the supplier (purchased from Beijing Vital River Laboratory Animal Technology Co., Ltd.) and raised in SPF grade animal room. Before the experiment, the animal was adapted for at least three days. Freshly collected tumor samples obtained from surgery or from mouse PDX models containing tumor cells from patient were kept in a storage tube and transported to the laboratory on ice in the shortest possible time. After removing the non-tumor tissues and necrotic tissues in the biosafety cabinet, the tumor samples were cut into cubes of 1-3 mm^2, rinsed with HBSS. […] Collected cell suspension and centrifuged the suspension at 1000 rpm for 3 minutes to remove supernatant, and re-suspended in PBS containing 1% PBS; counted cell numbers and adjusted cell density to 1×10^8/ml. […] Counted the number of cells, and adjusted the cell density to 1-10×10^5/ml. […] 5-14 day after administration, the mice were killed and cell viability was detected by quantitative analysis of ATP by CellTiter-Glo luminescence in the modified polyvinylidene fluoride tubes. According to the viability of tumor cells in the control group, the percentages of cell viable proliferation (t/c %) in the experiment groups were calculated, and then the efficacy of the corresponding drugs was evaluated. […] The viability of the tumor cells was measured.

[2] = test system: patient-derived gastric cancer cells from GAPF157; assay: method of the present invention (implanted PVDF tube, CellTiter-Glo ATP viability), GAPF157 cells; conditions: FIG. 5
Protocol: (§1) The viability of the tumor cells was measured. Mouse PDX model GAPP 157 was obtained by implanting primary gastric cancer cells into mice. After 2 months of feeding, patient-derived gastric cancer cells were obtained from GAPF157. The sensitivity of the patient-derived gastric cancer cells in […] to S-1 was detected by the traditional PDX method and the method of the present invention (FIG. 4 and FIG. 5).

[3] = test system: patient-derived gastric cancer cells in GAPF155; assay: traditional PDX method, mouse PDX model GAPF155; conditions: FIG. 2
Excerpt: (§2) The PDX model well maintains the biological characteristics the of primary tumor cells of a patient. The model is obtained by transplanting a fresh tumor tissue of a patient into an immune deficient mouse (e.g. a nude mouse or a severe combined immune deficiency (SCID) mouse). Such models maintain the genetic characteristics of the patient as well as tumor heterogeneity. Presently, the major difficulty of using PDX model for individualized precision medical treatment is the lengthy time period spent on modelling and sensitivity test, and the low success rate for modelling. For example, primary cell transplantation takes 2-3 months, and the drug sensitivity test takes 3-4 months. In addition, PDX modelling requires a high level of technical skills. Surgeons, histologists and researchers need to cooperate closely after the tumor sample is obtained from the patient. Therefore, how to improve the method for determining the sensitivity of tumor cells to an anti-tumor drug by using a PDX model becomes an urgent issue. The method for PDX mouse modelling is known in the art. […] The sensitivity of the patient-derived gastric cancer cells in GAPF155 to S-1 was detected by the traditional PDX method and the method of the present invention (FIG. 2 and FIG. 3).

[4] = test system: patient-derived gastric cancer cells in GAPF155; assay: method of the present invention (implanted PVDF tube, CellTiter-Glo ATP viability), GAPF155 cells; conditions: FIG. 3
Protocol: as §1, with “GAPF155” for “GAPP 157”, “GAPF155.” for “GAPF157.”, “2” for “4”, “3).” for “5).”

[5] = test system: patient-derived gastric cancer cells from GAPF157; assay: traditional PDX method, mouse PDX model GAPF157; conditions: FIG. 4
Excerpt: as §2, with “(FIG. 4” for “(FIG. 2”, “FIG. 5).” for “FIG. 3).”

Compound | response to drug in drug screening [1] | sensitivity of the tumor cells to the drug / anti-tumor activity [2] | sensitivity of the tumor cells to the drug / anti-tumor activity [3] | sensitivity of the tumor cells to the drug / anti-tumor activity [4] | sensitivity of the tumor cells to the drug / anti-tumor activity [5]
Nc1ccn([C@@H]2O[C@H](CO)[C@@H](O)C2(F)F)c(=O)n1 [gemcitabine] | well responded |  |  |  | 
Tegafur [S-1] |  | sensitive; also recorded: good anti-tumor activity | sensitive; also recorded: good anti-tumor activity | sensitive; also recorded: good anti-tumor activity | sensitive; also recorded: good anti-tumor activity
